Drawing on US20210221784A1, “COMPOUNDS AND COMPOSITIONS FOR THE TREATMENT OF PAIN” (Université de Strasbourg, priority 2018, published 2021), this text covers IC50 and Ki for 17 compounds.

For assay [1], the target named is T1, human NPFFR1 (hNPFFR1) receptor (Homo sapiens, UniProt Q9GZQ6).
T1 construct: expressed in transfected cells; host or cells: HEK-293 T cells, transient co-transfection
Nature of the assay: Human NPFFR1 evaluation using BRET biosensors in HEK-293 T cells. Format: cell-based. Particulars: hNPFFR1 in HEK-293 T cells, stimulated by EC80 RFRP-3, read-out: IC50 of antagonist activity. A digest of the protocol: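 HEK-293 T cells transiently co-expressing hNPFFR1, GαoB and a Gi-effector BRET biosensor pair; agonist read after 10 min compound alone, then antagonism after EC80 RFRP-3 for 10 min. IC50 from 20-point curves over 6 logs, duplicates in two independent experiments.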
(Bioluminescence resonance energy transfer reports proximity on the nanometre scale.)

For a further assay, the target named is T2, hNPFFR1 (Homo sapiens, UniProt Q9GZQ6).
T2 construct: expressed in transfected cells; membranes
As to the kind of experiment: Radioligand binding competition, membranes from CHO cells expressing hNPFFR1. Particulars: 0.015 nM [D-Tyr1[125I], N-MePhe3]-NPFF, 1 hr at 25° C., read-out: NPFF1-R Ki. The procedure:
(§1) Competition experiments with membranes from CHO cells stably expressing hNPFFR1 and hNPFFR2 were performed essentially as described in Elhabazi, K., et al. Neuropharmacology, 2013. 75C, 164-171., Briefly, hNPFFR1 or hNPFFR2 membranes (5 to 10 μg of proteins) were incubated (1 hr at 25° C.; 0.25 mL total volume) with 0.015 nM [D-Tyr1[125I], N-MePhe3]-NPFF (Hartmann Analytic GmbH) in 50 mM HEPES (pH 7.4), 1 mM CaCl2, 1 mM MgCl2 and 0.1% bovine serum albumin. Non-specific binding was determined in the presence of 10 μM RFRP-3. Incubation was terminated by rapid filtration through a 96-well GF/B unifilter apparatus (Perkin Elmer Life and Analytical Sciences, Courtaboeuf, France). Unifilters were washed five times with binding buffer, then dried for 1 h at 65° C. After addition of 40 μL scintillation cocktail (Microscint-O, Perkin Elmer) per well, bound radioactivity was determined on a TopCount scintillation counter (Perkin Elmer).

In the next assay the target is T3, hNPFFR2 (Homo sapiens, UniProt Q9Y5X5).
T3 construct: expressed in transfected cells; membranes
Nature of the assay: Radioligand binding competition, membranes from CHO cells expressing hNPFFR2. The settings on record: 0.015 nM [D-Tyr1[125I], N-MePhe3]-NPFF, 1 hr at 25° C., read-out: NPFF2-R Ki. As to the method: as §1

Molecules are shown by their SMILES.

T3 sequence (Q9Y5X5 whole entry): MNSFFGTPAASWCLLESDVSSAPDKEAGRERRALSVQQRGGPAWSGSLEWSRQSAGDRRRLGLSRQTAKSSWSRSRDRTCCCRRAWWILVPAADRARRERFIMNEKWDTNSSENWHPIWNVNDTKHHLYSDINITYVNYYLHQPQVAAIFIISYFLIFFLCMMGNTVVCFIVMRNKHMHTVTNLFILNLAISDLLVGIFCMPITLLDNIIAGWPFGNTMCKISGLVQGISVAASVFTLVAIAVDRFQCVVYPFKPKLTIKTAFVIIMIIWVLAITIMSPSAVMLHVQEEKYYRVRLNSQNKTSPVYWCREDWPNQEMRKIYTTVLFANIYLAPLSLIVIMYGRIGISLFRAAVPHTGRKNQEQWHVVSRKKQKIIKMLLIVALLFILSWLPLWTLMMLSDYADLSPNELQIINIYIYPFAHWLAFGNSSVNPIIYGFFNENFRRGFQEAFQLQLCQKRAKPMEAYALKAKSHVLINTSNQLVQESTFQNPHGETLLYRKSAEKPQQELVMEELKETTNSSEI
T2 sequence (Q9GZQ6 whole entry): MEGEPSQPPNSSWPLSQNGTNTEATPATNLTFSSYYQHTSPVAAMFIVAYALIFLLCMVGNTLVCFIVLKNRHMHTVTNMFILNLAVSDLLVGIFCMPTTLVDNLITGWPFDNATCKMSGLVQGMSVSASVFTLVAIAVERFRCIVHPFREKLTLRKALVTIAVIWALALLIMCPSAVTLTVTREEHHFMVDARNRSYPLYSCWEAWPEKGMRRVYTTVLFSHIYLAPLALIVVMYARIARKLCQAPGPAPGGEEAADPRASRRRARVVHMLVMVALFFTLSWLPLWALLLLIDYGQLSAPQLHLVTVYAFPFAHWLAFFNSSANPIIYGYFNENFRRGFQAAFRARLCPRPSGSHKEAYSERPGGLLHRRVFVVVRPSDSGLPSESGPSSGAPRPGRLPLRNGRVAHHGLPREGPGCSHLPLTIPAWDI
T1 sequence (Q9GZQ6 whole entry): as above

As for `CC(C)Oc1ccccc1-c1ccc(N)nc1N` [Compound 2f, 3-(2-isopropoxyphenyl)pyridine-2,6-diamine], in assay [1], the IC50 (in general, the concentration at which inhibition is half-maximal) was in the range of 100 to 500 nM. For the same compound, the Ki (in general, a dissociation constant, usually derived from enzyme kinetics or from competition with a known ligand) was 11.3 nM on hNPFFR1 and 2100 nM on hNPFFR2.
For `Nc1ccc(Cc2ccccc2)c(N)n1` [Compound 10a, 3-benzylpyridine-2,6-diamine], the concentration for half-maximal inhibition (IC50) in assay [1] is greater than 1000 nM. For the same compound, the Ki at hNPFFR1 came out at 76 ± 12 nM; on hNPFFR2, 2800 nM.
As to `Nc1ccc(Cc2ccc(Cl)cc2Cl)c(N)n1` [Compound 10f, 3-(2,4-dichlorobenzyl)pyridine-2,6-diamine], the IC50 in assay [1] was 100 to 500 nM. The inhibition constant Ki was found to be 3.7 nM at hNPFFR1 and 500 nM at hNPFFR2.
For `CNc1nc(N)ccc1-c1cccc(Cl)c1Cl` [Compound 5a, 3-(2,3-dichlorophenyl)-N2-methylpyridine-2,6-diamine], the IC50 in assay [1] is greater than 1000 nM. Also, the values for the Ki on hNPFFR1 and on hNPFFR2 were 81.2 nM and 2300 nM, respectively.
Take `CCc1ccccc1-c1ccc(N)nc1N` [Compound 1d, 3-(2-ethylphenyl)pyridine-2,6-diamine]: the half-maximal inhibitory concentration (IC50) in assay [1] was 100 to 500 nM. Moreover, the inhibition constant Ki at hNPFFR1 stood at 6.2 nM; at hNPFFR2 it was 2000 nM.
Regarding `CC(C)COc1ccccc1-c1ccc(N)nc1N` [Compound 2g, 3-(2-isobutoxyphenyl) pyridine-2,6-diamine], the IC50 in assay [1] lay in the range of 100 to 500 nM. The Ki on hNPFFR1 came to 9 nM; at hNPFFR2, 700 nM.
Turning to `Nc1ccc(-c2cccc(Cl)c2)c(N)n1` [Compound 1h, 3-(3-chlorophenyl)pyridine-2,6-diamine], the IC50 in assay [1] lay in the range of 500 to 1000 nM. The inhibition constant (Ki) at hNPFFR1 stood at 90 nM; on hNPFFR2, 300 nM.
As for `COc1cccc(-c2ccc(N)nc2N)c1OC` [Compound 2l, 3-(2,3-dimethoxyphenyl) pyridine-2,6-diamine], in assay [1], the half-inhibitory concentration (IC50) was greater than 1000 nM. Moreover, the figures for the inhibition constant Ki at hNPFFR1 and on hNPFFR2 were 26 nM and 900 nM, respectively.
`Nc1ccc(-c2ccc(Cl)cc2)c(N)n1` [Compound 1i, 3-(4-chlorophenyl)pyridine-2,6-diamine]: the half-maximal inhibitory concentration (IC50) in assay [1] is greater than 1000 nM. Moreover, the Ki on hNPFFR1 was determined as 786 nM; on hNPFFR2 it was 8800 nM.
With `COc1cc(F)ccc1-c1ccc(N)nc1N` [Compound 2k, 3-(4-fluoro-2-methoxyphenyl) pyridine-2,6-diamine], the IC50 in assay [1] fell in the range of 500 to 1000 nM. For the same compound, the inhibitory constant (Ki) came out at 27.6 nM at hNPFFR1 and 3200 nM at hNPFFR2.
Regarding `COc1ccccc1-c1ccc(N)nc1C(C)C` [Compound 6h, 6-isopropyl-5-(2-methoxyphenyl)pyridin-2-amine], the IC50 in assay [1] fell in the range of 500 to 1000 nM. Besides, the Ki came to 35.7 nM at hNPFFR1 and 1500 nM on hNPFFR2.
In the case of `COCc1nc(N)ccc1-c1ccccc1OC` [Compound 6e, 6-(methoxymethyl)-5-(2-methoxyphenyl)pyridin-2-amine], the concentration for half-maximal inhibition (IC50) in assay [1] is greater than 1000 nM. In addition, the inhibitory constant (Ki) was found to be 461 nM on hNPFFR1 and 18600 nM at hNPFFR2.
For the compound `Nc1ccc(-c2ccccc2O)c(N)n1` [Compound 2a, 2-(2,6-diaminopyridin-3-yl)phenol], the IC50 in assay [1] fell in the range of 500 to 1000 nM. For the same compound, the Ki on hNPFFR1 came out at 11.8 nM; at hNPFFR2, 1100 nM.
Take `Nc1ccc(-c2cccc(C(F)(F)F)c2Cl)c(N)n1` [Compound 1p, 3-(2-chloro-3-(trifluoromethyl)phenyl) pyridine-2,6-diamine]: the concentration for half-maximal inhibition (IC50) in assay [1] lay in the range of 100 to 500 nM. Besides, the Ki came out at 65 nM on hNPFFR1 and 4600 nM on hNPFFR2.
In the case of `Nc1ccc(-c2cc(Cl)cc(Cl)c2)c(N)n1` [Compound 1o, 3-(3,5-dichlorophenyl) pyridine-2,6-diamine], the concentration for half-maximal inhibition (IC50) in assay [1] was greater than 1000 nM. In addition, the Ki on hNPFFR1 is roughly 500 nM; on hNPFFR2 it was roughly 5000 nM.
For `CCc1nc(N)ccc1-c1cccc(Cl)c1Cl` [Compound 6c, 5-(2,3-dichlorophenyl)-6-ethylpyridin-2-amine], in that order: 500 to 1000 nM, 25 nM and 800 nM.
As for `CCCCOc1ccccc1-c1ccc(N)nc1N` [Compound 2e, 3-(2-butoxyphenyl)pyridine-2,6-diamine], the 50% inhibitory concentration (IC50) in assay [1] lay in the range of 100 to 500 nM. Moreover, the inhibition constant (Ki) on hNPFFR1 amounted to 10.5 nM; at hNPFFR2, 1800 nM.
